Measurements from patent US5643871A, “Antitumor antibiotics” (Bristol-Meyers Squibb Company, priority 1993, dated 1997).
Starred links: 1 amine or outer side, 2 acyl side, 3 side chain; linkers in the order of their positions; H or OH if unused. Positions of bridges follow the written chain, without caps; N, C: chain ends. Non-standard residues stand in square brackets, D forms with d. Residues, ends and D or L forms follow the SMILES beside them. Chains are numbered I, II in the order given. ξ: configuration not given here. *: point of attachment. X2 = CC(C)C(=O)OC1CC=NN([*:1])C1C(=O)[*:2]; ξNMeVal(3-OH) = CNC(C(=O)O)C(C)(C)O; X1 = COc1ccc2nc(C(=O)*)cnc2c1; Sar = CNCC(=O)O

How the values were obtained:
[1] = tested on: P388 murine leukemia; assay: In vivo antitumor activity against P388 leukemia (ip tumor implant / ip drug); settings: once daily for five days; for % T/C: >=125 considered significant; for Median Survival Time: CDF1 female mice, ip P388;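 as to all read-outs here: dosing started the day after tumor implantation, and %T/C expresses median survival of treated mice relative to the saline-treated control group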
Description: CDF1 female mice were implanted intraperitoneally with a tumor inoculum of 10^6 ascites cells of P388, and treated with various doses of test compounds. The compounds were administered intraperitoneally once daily for five consecutive days starting on the day after tumor implantation. The ratio of median survival time for a treated group and that for the saline-treated control group was determined and expressed as %T/C.

[2] = tested on: P388 leukemia; assay: iv/iv P388 leukemia protocol; type: in vivo, mice; settings: 0.010 mg/kg/dose iv, once daily for five days; leukemic cells implanted iv
[3] = tested on: Madison 109 (M109) lung carcinoma; settings: sc tumor implantation, intravenous drug administration on days 2, 6 and 10
Description: 299- (1981). Briefly, CDF1 female mice were implanted intraperitoneally (ip) with 0.5 ml or subcutaneously (sc) with 0.1 ml of a 2% brei (w/v) of M109 lung carcinoma. The test compound was administered intraperitoneally (in ip tumor implant groups) or intravenously (in sc tumor implant groups) at various dosage levels to groups of mice on days 2, 6 and 10 after tumor implantation. The median survival time and %T/C values were determined as described above.

[4] = tested on: Madison 109 (M109) lung carcinoma; assay: Madison 109 lung carcinoma, ip/ip model; type: in vivo, mice; settings: 0.05 mg/kg/dose ip on days 2, 6 and 10; ip tumor implantation

| SMILES | Body Weight Change on Day 4 ([1]; dose 0.02 mg/kg/day ip) | % T/C ([1]; dose 0.02 mg/kg/day ip) [%] | Median Survival Time ([1]; dose 0.02 mg/kg/day ip) | Body Weight Change on Day 4 ([1]; dose 0.05 mg/kg/day ip) | % T/C ([1]; dose 0.05 mg/kg/day ip) [%] | Median Survival Time ([1]; dose 0.05 mg/kg/day ip) | Body Weight Change on Day 4 ([1]; dose 0.2 mg/kg/day ip) | % T/C ([1]; dose 0.2 mg/kg/day ip) | Median Survival Time ([1]; dose 0.2 mg/kg/day ip) | Body Weight Change on Day 4 ([1]; dose 0.7 mg/kg/day ip) | % T/C ([1]; dose 0.7 mg/kg/day ip) | Median Survival Time ([1]; dose 0.7 mg/kg/day ip) | % T/C ([1]; dose 2.0 mg/kg/day ip) | Median Survival Time ([1]; dose 2.0 mg/kg/day ip) | other results |
| --- | --- | --- | --- | --- | --- | --- | --- | --- | --- | --- | --- | --- | --- | --- | --- |
| COc1ccc2nc(C(=O)NC3COC(=O)C(C(C)(C)O)N(C)C(=O)CN(C)C(=O)CNC(=O)C4C(OC(=O)C(C)C)CC=NN4C(=O)C(NC(=O)c4cnc5cc(OC)ccc5n4)COC(=O)C(C(C)(C)O)N(C)C(=O)CN(C)C(=O)CNC(=O)C4C(OC(=O)CC(C)C)CC=NN4C3=O)cnc2c1 (stereo not drawn) [BMY-46404] | -0.1 | 130 | 13.0 | 0.2 | 140 | 14.0 | -0.0 | 135% | 13.5 | -0.3 | 165% | 16.5 | 80% | 8.5 | Body Weight Change on Day 4 ([1]; dose 2.0 mg/kg/day ip): -0.7 |
| CCC(=O)OC1CC=NN2C(=O)C(NC(=O)c3cnc4cc(OC)ccc4n3)COC(=O)C(C(C)(C)O)N(C)C(=O)CN(C)C(=O)CNC(=O)C3C(OC(=O)C(C)C)CC=NN3C(=O)C(NC(=O)c3cnc4cc(OC)ccc4n3)COC(=O)C(C(C)(C)O)N(C)C(=O)CN(C)C(=O)CNC(=O)C12 (stereo not drawn) [BMY-46408] | -0.1 | 150 | 15.0 | -0.4 | 155 | 15.5 | 0.2 | 155% | 15.5 | 0.3 | 85% | 8.5 | Tox | Tox | – |
| COc1ccc2nc(C(=O)NC3COC(=O)C(C(C)(C)O)N(C)C(=O)CN(C)C(=O)CNC(=O)C4C(OC(=O)C(C)C)CC=NN4C(=O)C(NC(=O)c4cnc5cc(OC)ccc5n4)COC(=O)C(C(C)(C)O)N(C)C(=O)CN(C)C(=O)CNC(=O)C4C(OC(=O)C(C)C)CC=NN4C3=O)cnc2c1 (stereo not drawn) [BMY-45012] (I: X1-S[X2]G[Sar][ξNMeVal(3-OH)] / II: X1-S[X2]G[Sar][ξNMeVal(3-OH)]; ester I:1-II:C, I:C-II:1; configuration not given here) | -0.4 | 115 | 11.5 | 0.3 | 145 | 14.5 | -0.7 | 145% | 14.5 | -0.1 | 95% | 9.5 | – | – | maximum %T/C [2]: 113%; antitumor activity (%T/C) [3]: not significantly active; maximum %T/C [4]: 131% |
| COc1ccc2nc(C(=O)NC3COC(=O)C(C(C)(C)O)N(C)C(=O)CN(C)C(=O)CNC(=O)C4C(OC(=O)C(C)C)CC=NN4C(=O)C(NC(=O)c4cnc5cc(OC)ccc5n4)COC(=O)C(C(C)(C)O)N(C)C(=O)CN(C)C(=O)CNC(=O)C4C(OC(C)=O)CC=NN4C3=O)cnc2c1 (stereo not drawn) [BMY-46572] | – | – | – | – | – | – | – | – | – | – | – | – | – | – | Body Weight Change on Day 4 ([1]; dose 0.003 mg/kg/day ip): 0.4; % T/C ([1]; dose 0.003 mg/kg/day ip): 110%; Median Survival Time ([1]; dose 0.003 mg/kg/day ip): 11.0; Body Weight Change on Day 4 ([1]; dose 0.01 mg/kg/day ip): 0.5; % T/C ([1]; dose 0.01 mg/kg/day ip): 125%; Median Survival Time ([1]; dose 0.01 mg/kg/day ip): 12.5; Body Weight Change on Day 4 ([1]; dose 0.03 mg/kg/day ip): -0.0; % T/C ([1]; dose 0.03 mg/kg/day ip): 140%; Median Survival Time ([1]; dose 0.03 mg/kg/day ip): 14.0 |
| CCC(=O)OC1CC=NN2C(=O)C(NC(=O)c3cnc4cc(OC)ccc4n3)COC(=O)C(C(C)(C)O)N(C)C(=O)CN(C)C(=O)CNC(=O)C3C(OC(=O)CC)CC=NN3C(=O)C(NC(=O)c3cnc4cc(OC)ccc4n3)COC(=O)C(C(C)(C)O)N(C)C(=O)CN(C)C(=O)CNC(=O)C12 (stereo not drawn) [BMS-181060] | – | – | – | – | – | – | – | – | – | – | – | – | – | – | Body Weight Change on Day 4 ([1]; dose 0.003 mg/kg/day ip): 1.0; % T/C ([1]; dose 0.003 mg/kg/day ip): 105%; Median Survival Time ([1]; dose 0.003 mg/kg/day ip): 11.5; Body Weight Change on Day 4 ([1]; dose 0.01 mg/kg/day ip): 0.1; % T/C ([1]; dose 0.01 mg/kg/day ip): 127%; Median Survival Time ([1]; dose 0.01 mg/kg/day ip): 14.0; Body Weight Change on Day 4 ([1]; dose 0.03 mg/kg/day ip): 0.0; % T/C ([1]; dose 0.03 mg/kg/day ip): 127%; Median Survival Time ([1]; dose 0.03 mg/kg/day ip): 14.0; Body Weight Change on Day 4 ([1]; dose 0.09 mg/kg/day ip): -0.9; % T/C ([1]; dose 0.09 mg/kg/day ip): 91%; Median Survival Time ([1]; dose 0.09 mg/kg/day ip): 10.0; Body Weight Change on Day 4 ([1]; dose 0.27 mg/kg/day ip): 0.7; % T/C ([1]; dose 0.27 mg/kg/day ip): Tox; Median Survival Time ([1]; dose 0.27 mg/kg/day ip): Tox; % T/C ([1]; dose 0.81 mg/kg/day ip): Tox; Median Survival Time ([1]; dose 0.81 mg/kg/day ip): Tox |
| COc1ccc2nc(C(=O)NC3COC(=O)C(C(C)(C)O)N(C)C(=O)CN(C)C(=O)CNC(=O)C4C(OC(=O)CC(C)C)CC=NN4C(=O)C(NC(=O)c4cnc5cc(OC)ccc5n4)COC(=O)C(C(C)(C)O)N(C)C(=O)CN(C)C(=O)CNC(=O)C4C(OC(=O)CC(C)C)CC=NN4C3=O)cnc2c1 (stereo not drawn) [BMY-46405] | -0.8 | 140 | 14.0 | -0.8 | 175 | 17.5 | -3.4 | Tox | Tox | – | Tox | Tox | Tox | Tox | – |
| CCC(=O)OC1CC=NN2C(=O)C(NC(=O)c3cnc4cc(OC)ccc4n3)COC(=O)C(C(C)(C)O)N(C)C(=O)CN(C)C(=O)CNC(=O)C3C(OC(C)=O)CC=NN3C(=O)C(NC(=O)c3cnc4cc(OC)ccc4n3)COC(=O)C(C(C)(C)O)N(C)C(=O)CN(C)C(=O)CNC(=O)C12 (stereo not drawn) [BMY-46407] | 1.0 | 120 | 12.0 | -0.0 | 135 | 13.5 | -0.01 | Tox | Tox | – | Tox | Tox | Tox | Tox | – |
